In PMC11067034 (Proceedings of the National Academy of Sciences of the …, 2024):

Molecular target: T1, human CTF18-RFC (ATPγS sites in CTF18/A, RFC2/B, RFC5/C, RFC4/D) (Homo sapiens, UniProt P35249+P35250+P40937+Q8WVB6)
T1 construct: gene CHTF18; heptameric CTF18-RFC2-5-DCC1-CTF8 from baculovirus/insect cells, intact complex; DCC1 and CTF8 invisible in maps; mixed with human PCNA (from E. coli BL21) and two-tailed DNA; with Replication factor C subunit 3; Sister chromatid cohesion protein DCC1; Chromosome transmission fidelity protein 8 homolog; Proliferating cell nuclear antigen
Assay: cryo-EM structure
Assay type: binding
Details: Mg2+-coordinated; ATPase sites of CTF18, RFC2, RFC5 and RFC4 (arginine fingers from adjacent subunits); 0.5 mM ATPγS, PCNA and DNA, 1 mM Mg acetate, pH 7.5, room temperature

## Nc1ncnc2c1ncn2[C@@H]1O[C@H](COP(=O)(O)OP(=O)(O)OP(O)(O)=S)[C@@H](O)[C@H]1O [ATPγS]
  cryo-EM structure: We identified four ATPγS molecules in the AAA+ nucleotide binding pockets of subunits CTF18/A, RFC2/B, RFC5/C
